Among the data in patent US6200994A, “1,4-Disubstituted cyclohexane derivatives for the treatment of depression” (American Home Products Corp, priority 1999, dated 2001) are inhibition and Ki values, retold here.

In one experiment the target is T1, human 5-HT1A receptor (Homo sapiens, UniProt P08908).
T1 construct: expressed in transfected cells
T1 sequence (P08908 1-422): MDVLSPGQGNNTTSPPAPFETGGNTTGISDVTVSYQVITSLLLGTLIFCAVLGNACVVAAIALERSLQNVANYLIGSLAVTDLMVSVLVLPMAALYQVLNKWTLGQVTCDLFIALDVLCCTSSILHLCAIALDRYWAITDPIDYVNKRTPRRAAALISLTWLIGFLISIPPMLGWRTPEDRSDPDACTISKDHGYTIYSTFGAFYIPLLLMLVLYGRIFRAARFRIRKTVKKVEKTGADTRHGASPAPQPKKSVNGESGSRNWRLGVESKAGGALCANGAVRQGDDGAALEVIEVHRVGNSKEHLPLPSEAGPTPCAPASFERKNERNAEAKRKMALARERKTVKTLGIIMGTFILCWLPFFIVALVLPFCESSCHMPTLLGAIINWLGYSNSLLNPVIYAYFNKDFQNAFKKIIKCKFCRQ
Kind of experiment: [3H]8-OH-DPAT binding to human 5-HT1A receptor in CHO cell membranes. Here is the method: The PCR cloning of the human 5-HT1A receptor subtype from a human genomic library has been described previously by Chanda et al., Mol. Pharmacol., 43:516 (1993). A stable Chinese hamster ovary cell line expressing the human 5-HT1A receptor subtype (5-HT1A.CHO cells) was employed throughout this study. Cells were maintained in DMEM supplemented with 10% fetal calf serum, non-essential amino acids and penicillin/ streptomycin.
Cells were grown to 95-100% confluency as a monolayer before membranes were harvested for binding studies. Cells were gently scraped from the culture plates, transferred to centrifuge tubes, and washed twice by centrifugation (2000 rpm for 10 min., 4° C.) in buffer (50 mM Tris; pH 7.5). The resulting pellets were aliquoted and maintained at -80.C. On the day of assay, the cells were thawed on ice, and resuspended in buffer. Studies were conducted using [^3 H]8-OH-DPAT as the radioligand. The binding assay was performed in 96 well microtiter plates in a final total volume of 250 μL of buffer. Comparison experiments were performed by using 7 concentrations of unlabelled drug and a final ligand concentration of 1.5 nM. Non-specific binding was determined in the presence of 10 μM 5HT. Saturation analysis was conducted by using [^3 H]8-OH-DPAT at concentrations ranging from 0.3-30 nM. […]

The target of a further experiment is T2, serotonin transporter (Rattus norvegicus, UniProt P31652).
T2 construct: frontal cortical membranes prepared from male Sprague-Dawley rats; from tissue; host or cells: frontal cortex membranes of male Sprague-Dawley rats
Kind of experiment: 3H-paroxetine binding, affinity for the serotonin transporter (ST) in frontal cortical membranes. More on the design: species or system male Sprague-Dawley rats. To be noted: 1 h, @ 100 nM. Here is the method: A protocol similar to that used by Cheetham et al., Neuropharmacol., 32:737 (1993) was used to determine the affinity of compounds for the serotonin transporter. Briefly, frontal cortical membranes prepared from male Sprague-Dawley rats were incubated with ^3 H-paroxetine (0.1 nM) for 60 min at 25° C. All tubes also contained either vehicle, test compound (one to eight concentrations), or a saturating concentration of fluoxetine (10 μM) to define […]. All reactions were terminated by the addition of ice cold Tris buffer followed by rapid filtration using a Tom Tech filtration device to separate bound from free ^3 H-paroxetine. Bound radioactivity was quantitated using a Wallac 1205 Beta Plate® counter. Nonlinear regression analysis was used to determine IC50 values which were converted to Ki values using the method set forth in Cheng and Prusoff, Biochem. Pharmacol., 22:3099 (1973) (Ki=IC50/((Radioligand conc.)/(1+KD)).

The structures appear in SMILES notation.

T2 sequence (P31652 whole entry): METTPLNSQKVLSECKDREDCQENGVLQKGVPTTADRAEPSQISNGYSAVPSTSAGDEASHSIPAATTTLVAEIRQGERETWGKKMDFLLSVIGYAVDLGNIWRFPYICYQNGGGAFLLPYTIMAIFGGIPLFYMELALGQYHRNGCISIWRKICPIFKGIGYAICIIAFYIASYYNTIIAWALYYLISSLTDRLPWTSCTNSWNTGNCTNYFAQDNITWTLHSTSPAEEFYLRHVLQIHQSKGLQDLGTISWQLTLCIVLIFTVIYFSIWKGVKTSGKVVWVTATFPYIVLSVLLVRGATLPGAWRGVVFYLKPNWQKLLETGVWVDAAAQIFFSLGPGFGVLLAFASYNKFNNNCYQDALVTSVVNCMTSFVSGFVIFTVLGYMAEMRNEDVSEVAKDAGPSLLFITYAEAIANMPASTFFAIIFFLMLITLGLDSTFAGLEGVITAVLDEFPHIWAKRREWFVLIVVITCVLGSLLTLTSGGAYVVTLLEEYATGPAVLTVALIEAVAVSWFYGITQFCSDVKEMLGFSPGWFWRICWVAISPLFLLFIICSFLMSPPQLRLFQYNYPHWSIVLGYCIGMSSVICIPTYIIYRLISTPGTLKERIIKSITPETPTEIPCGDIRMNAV

In general, inhibition refers to the relative decrease from the control value, in per cent. Take `COc1ccsc1C1=CCN([C@H]2CC[C@@H](c3c[nH]c4ccc(F)cc43)CC2)CC1` [Example 1, 5-Fluoro-3-{(1,4-cis)-4-[4-(3-methoxy-thiophen-2-yl)-3,6-dihydro-2H-pyridin-1-yl]-cyclohexyl}-1H-indole]: at human 5-HT1A receptor (0.5 h, @ 1000 nM, [3H]8-OH-DPAT), the inhibition at 1 µM came out at 48%.

Usually Ki stands for a measure of affinity in units of concentration, obtained from inhibition or displacement. In the case of `COc1ccsc1C1=CCN([C@H]2CC[C@H](c3c[nH]c4ccc(F)cc43)CC2)CC1` [Example 2, 5-Fluoro-3-{(1,4-trans)-4-[4-(3-methoxy-thiophen-2-yl)-3,6-dihydro-2H-pyridin-1-yl]-cyclohexyl}-1H-indole], at serotonin transporter, the inhibition at 0.1 µM was 18%. The affinity at human 5-HT1A receptor, expressed as Ki, was 20.4 nM.
